The source of these data is US12486229B2, “Indole derivative and application thereof” (SHANGHAI MEDICILON INC., priority 2020, dated 2025).

For the test, the system named is TNBS induced ulcerative colitis in rats. Put plainly: TNBS induced ulcerative colitis in rats. In kind it is in vivo, rat. The settings on record: for Colon length / Colon weight / Colon weight/colon length / Ulcer area: 3 mg/kg oral gavage once a day for 7 days, day 8; for General anatomical view of colon, from excellent to poor: 7 days administration, SASP 360, Example 3 and Etrasimod 3, Ozanimod 10 mg/kg; for Weight: 3 mg/kg oral gavage once a day; for Drug efficacy intensity (colon weight): oral gavage for 7 consecutive days, doses as given in ranking. As to the method: Preparation of molding agent: 5 mL TNBS and 8.953 mL anhydrous ethanol and 26.741 sterilized water for injection. • TNBS comes from Dalian Meilun Biotechnology Co., Ltd. • Source of SPF male SD rats: Shanghai Slake Experimental Animal Co., Ltd. • Animal age at the beginning of the experiment: 8 to 10 weeks; • Animal weight at the beginning of the experiment: about 250 g; • Adaptation time: 5 to 7 days; • Animals were fasted (only water) for 24 hours. After inhalation anesthesia with isoflurane, all rats were perfused with 0.5 mL TNBS ethanol solution per rat (18 mg TNBS/rat) via rectum with latex hose, with the length of the hose entering the rectum of about 8 cm. After withdrawing the hose, the rats remained under isoflurane anesthesia, and kept in the inclined state of hip elevation for 15 minutes.
The rats after modeling were randomly divided into 5 groups: model group, positive control group using drug sulfasalazine (SASP, 360 mg/kg), test substance group using the compound of Example 3 (3 mg/kg), test substance group using Etrasimod (3 mg/kg), test substance group using Ozanimod (10 mg/kg).
At 3 hours after modeling, the animals in each group were administrated with medicine solution by oral gavage (Table 1), 5 mL/kg body weight (10 mL/kg in sulfasalazine group), once a day, for 7 consecutive days, and the feces of the animals and whether there is death were observed every day. On the 8th day, the animals were killed under CO2 overdose anesthesia followed by being dissected, the entire colon tissue was extracted, the contents of the colon were cleaned after longitudinal dissection along the mesenteric side, the colon was weighed and measured for its length, the area of the ulcer was measured, and the general situation was observed and photos were taken. Finally, the colon was fixed in 10% formalin, and H&E staining and histopathological analysis (inflammation, goblet cells, lesion depth, ulcer degree, crypt abscess) were performed.
Wherein, the compound of Example 3 of the invention, purity: 99.74%. • Etrasimod, prepared according to the literature method (the second isomer of Example 1.29 in WO2010/011316A1), purity: 98.47%. • Ozanimod, prepared according to the literature method (compound 86 in WO2011/060392A1), purity: 99.78%. • Sulfasalazine enteric-coated tablets, produced by Shanghai Fuda Pharmaceutical Co., Ltd., 0.25 g/tablet. Enteric coated tablets show yellow to brownish yellow after the coating is removed. • Solutol: Beijing Fengli Jingqiu Pharmaceutical Co., Ltd. • Solvent preparation: • DMSO, Solutol and 0.9% sodium chloride solution were mixed according to the volume ratio of 5:10:85 to prepare the solvent.
Preparation of compound of Example 3 and Etrasimod solution: 27 mg of test substances were taken respectively and dissolved in 45 mL of solvent to obtain corresponding test substance solution.
Ozanimod: 90 mg Ozanimod was dissolved in 45 mL solvent to obtain Ozanimod solution.
Preparation of SASP solution: six sulfasalazine enteric-coated tablets after grinding were added to 41.7 mL 0.5% CMC-Na, and then dissolved by ultrasonic to obtain SASP solution.
Due to the excipient factor of SASP drug preparation, the concentration should not be too high when suspended in 0.5% CMC-Na, otherwise the suspension was uneven and the mobility was poor, so the dose volume of SASP was doubled compared with the compound of Example 3 and Etrasimod.

As to `O=C(O)C[C@H]1CCc2c1[nH]c1ccc(OCc3ccc(C4CCCC4)c(C(F)(F)F)c3)cc21` [Etrasimod, reference compound], the Colon length is listed as 13.56 ± 0.54 cm, the Colon weight is 2.54 ± 0.25 g, the Colon weight/colon length is listed as 0.19 g/cm and the Ulcer area was 177.97 ± 56.5 mm^2. In addition, the “General anatomical view of colon, from excellent to poor” value was “group using compound of Example 3>group using sulfasalazine>group using Etrasimod>group using Ozanimod” and the “Drug efficacy intensity (colon weight)” value was “group using the compound of Example 3 (3 mg/kg)>group using Etrasimod (3 mg/kg)>group using sulfasalazine (360 mg/kg)>model group>group using Ozanimod (10 mg/kg)”. The Weight (Day 1) stood at 251.6 ± 0.5 g. For the setting “Day 2”, this molecule displayed a Weight of 225.5 ± 0.56 g. Also, the Weight (Day 3) was found to be 223.9 ± 0.94 g. This molecule also displayed a Weight (Day 4) of 221.8 ± 1.51 g. This molecule had a Weight (Day 5) of 224.4 ± 1.73 g. Under “Day 6”, the Weight was 230.1 ± 2.04 g. Under “Day 7”, this molecule showed a Weight of 245.5 ± 1.85 g. Also, under “Day 8”, the Weight was found to be 255.8 ± 1.6 g.

`O=C(O)CCn1ccc2cc(OCc3ccc(C4CCCC4)c(C(F)(F)F)c3)cc(Cl)c21` [Compound of Example 3, 3-(7-chlorine-5-((4-cyclopentyl-3-(trifluoromethyl)benzyl)oxy)-1H-indole-1-yl)propionic acid] came in with a Colon length of 13.66 ± 0.63 cm, a Colon weight of 2.07 ± 0.17 g, a Colon weight/colon length of 0.15 g/cm and a Ulcer area of 53.87 ± 24.01 mm^2. In addition, the “General anatomical view of colon, from excellent to poor” value was “group using compound of Example 3>group using sulfasalazine>group using Etrasimod>group using Ozanimod” and the “Drug efficacy intensity (colon weight)” value was “group using the compound of Example 3 (3 mg/kg)>group using Etrasimod (3 mg/kg)>group using sulfasalazine (360 mg/kg)>model group>group using Ozanimod (10 mg/kg)”. For the same molecule, under “Day 1”, the Weight is 247 ± 0.55 g. The Weight (Day 2) stood at 224.6 ± 0.51 g. The Weight (Day 3) is 226.3 ± 0.85 g. For the setting “Day 4”, this molecule returned a Weight of 233.6 ± 1.45 g. The Weight (Day 5) was 238.5 ± 1.57 g. For the setting “Day 6”, this molecule had a Weight of 245 ± 1.74 g. The molecule further gave a Weight (Day 7) of 258.8 ± 1.61 g. Moreover, the Weight (Day 8) came to 267.9 ± 1.44 g. The “Weight course compared with model group” value (SASP 360 mg/kg, Example 3 and Etrasimod 3 mg/kg, oral once a day) was “a certain tendency to inhibit the weight loss”.
